Experimental data published in patent publication US20070203749A1 (priority 2005, published 2007).
Read-outs that look alike come from different tables or passages of the source.

Tests used:
[1] = test system: SK-OV-3 cells; test: MTT assay, growth inhibition of ovarian cancer cell line SK-OV-3; assay type: cell-based; conditions: Homo sapiens; for CC50: SK-OV-3 cells, 72 hrs, concentration giving 50% cell survival, Table 8; for EC50: SK-OV-3, SKOV-3 cells, Table 10
Description: The MTT assay was described in Hansen, M. B., Nielson, S. E., and Berg, K. (1989) J. Immunol Methods 119, 203-210 and incorporated herein by reference in its entirety. Briefly, SK-OV-3 cells were seeded in 96-well plates in McCoy's medium containing 10% fetal bovine serum albumin (10,000 per well) and incubated overnight at 37° C. […] This incubation time was optimal for measuring inhibitory effects of different analogs. 50 microliters of 5 mg/mL MTT reagent was added to each well, and the plates were incubated at 37° C. for 3 hours. At the end of the incubation period, 50 microliters of DMSO was added to each well to dissolve cells, and the optical density (OD) of the wells was measured with a microplate reader (Victor^2 1420, Wallac, Finland) at 535 nm. Cell survival (CS) was calculated using the following equation: CS=(OD treated well/mean OD control wells)×100%
The EC50 (Table 1). defined as the drug concentration that results in 50% CS, was derived by calculating the point where the dose-response curve crosses the 50% CS point using GraphPad Prism.

[2] = biological target: XIAP-Bir3 (Homo sapiens, UniProt P98170); test: Fluorescence polarization binding assay, purified XIAP BIR-3 domain
Description: (§1) Binding constants were measured using fluorescence polarization as described in Zancta Nikolovska-Coleska et al., (2004) Analytical biochemistry, 332, 261-273. Briefly, various known concentrations of each test peptide were mixed with 5 nM fluorescently labeled peptide (AbuRPF-K(5-Fam)—NH2; FP peptide) and 40 nM of XIAP-Bir3, cIAP-1-Bir3 or cIAP-2-Bir3 in 100 μl of 0.1M Potassium Phosphate buffer, pH 7.5 containing 100 μg/ml bovine γ-globulin. These mixtures were incubated for 15 min at room temperature (approximately 22° C.). Following incubation, the polarization values (mP) were measured on a Victor^2V using a 485 nm excitation filter and a 535 nm emission filter. Kj(app) values were determined from the plot using nonlinear least-squares analysis using GraphPad Prism (Table 8).
(§2) In any event, binding to cIAP-1 and cIAP-2 or other IAPs can be determined using standard binding affinity assays, as illustrated above. […] We have utilized the specificity of this IAP binding motif in a fluorescence polarization assay to measure the binding affinities for cIAP-1 and cIAP-2 Antagonists. The fluorescence polarization assay consists of FP peptide, and the recombinant BIR3 domain of the XIAP protein. The FP peptide and mimics of the […] compete for binding to the BIR3 protein. […] If a peptide, peptidomimetic, or other small molecule being tested is a competitor, then it succeeds in displacing the FP peptide, resulting in a low mP value. Molecules that compete with the FP l peptide can be titrated and IC50 values determined (GraphPad Prism nonlinear regression curve-fitting program) by plotting mp values as the direct measure of fraction bound vs, the log of the compound concentration.

[3] = biological target: cIAP-1-Bir3 (Homo sapiens, UniProt Q13490); test: Fluorescence polarization binding assay, purified cIAP-1 BIR-3 domain; conditions: for Kd: BIR-3 domain; for binding to cIAP-1 and cIAP-2 relative to XIAP (fold more tightly): ratio of binding constants vs XIAP
Description: as §1, §2

[4] = biological target: cIAP-2-Bir3 (Homo sapiens, UniProt Q13489); test: Fluorescence polarization binding assay, purified cIAP-2 BIR-3 domain
Description: as §1, §2

[5] = test system: OVCAR-3 cells; test: Synergistic toxicity with SN-38 (topoisomerase I inhibitor); assay type: cell-based; conditions: compared between Compounds N and H
[6] = biological target: T1, XIAP (Homo sapiens, UniProt P98170); test: Effect of proteasome inhibitor on IAP degradation, western blot, XIAP; assay type: cell-based; conditions: SK-OV-3 cells, 20 hrs, absence of bortezomib
T1 construct: endogenous in cells; host or cells: SK-OV-3
Description: (§3) Cells were harvested after trypsinization by centrifuging at 2000 rpm for 10 min. The cell pellet was washed with PBS and lysed with RIPA to disrupt the cell membrane. The lysate after centrifugation was loaded onto a 5-20% polyacrylamide gel to separate the proteins. A Western blot was carried out using standard techniques and probed for XIAP and cIAP-1 proteins as described above.
(§4) Similarly, IAP degradation assays can be carried out by well known techniques, as illustrated above. […] Ubiquitinated protein is then escorted to the 26S proteasome where it undergoes final degradation and the ubiquitin is released and recycled. Once cIAP-1 Antagonists bind to cIAP-1, it results in perturbation of cell survival complexes or dissociation of natural ligands, signaling IAPs to either self ubiquinate or become targets for ubiquitination followed by proteasomal degradation. […] To further elucidate the machinery involved with this phenomenon, we focused on the regulation of IAP stability and asked whether or not the proteasome was involved in the degradation of cIAP-1 and XIAP.

[7] = biological target: T2, cIAP-1 (Homo sapiens, UniProt Q13490); test: Effect of proteasome inhibitor on IAP degradation, western blot, cIAP-1; assay type: cell-based; conditions: SK-OV-3 cells, 20 hrs, absence of bortezomib
T2 construct: endogenous in cells; host or cells: SK-OV-3
Description: as §3, §4

[8] = test system: SK-OV-3^R cells; test: MTT assay on IAP Antagonist-resistant SK-OV-3^R cells; assay type: cell-based; conditions: SK-OV-3^R cells (IAP Antagonist-resistant)
Description: (§5) Another unexpected observation we made was with respect to TRAIL sensitivity. IAP Antagonist-resistant […] cells (SK-OV-3^R) were generated by exposing the parental SK-OV-3 cells ([…]) to an IAP antagonist compound at a concentration that kills 95% of cells. Three days later, viable cells were transferred to a fresh flask and grown to confluency. Two weeks later, the cells were tested for IAP Antagonist sensitivity in an MTT assay as describe above and as expected, found these cells to be resistant to IAP Antagonist cytotoxicity.

[9] = test system: SK-OV-3^S cells; test: MTT assay, TRAIL sensitivity of parental SK-OV-3^S cells; assay type: cell-based; conditions: SK-OV-3^S cells (parental)
Description: as §5

[10] = fluorescence polarization, Table 8, read-out: XIAP, Kβ(spp)
[11] = fluorescence polarization, Table 8, read-out: cIAP-1, Kd(3pp)
[12] = fluorescence polarization, Table 8, read-out: cIAP-2, Kd(apβ)
[13] = Table 10, read-out: Kd(App), XIAP
[14] = Table 10, read-out: Kd(App), c-IAP-1
[15] = Table 10, read-out: Kd(App), cIAP-2

Chain of cIAP-2-Bir3 (Q13489 238-349 limits assumed): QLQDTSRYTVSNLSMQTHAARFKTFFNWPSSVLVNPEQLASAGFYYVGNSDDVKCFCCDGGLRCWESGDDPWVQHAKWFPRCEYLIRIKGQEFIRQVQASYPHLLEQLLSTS
Chain of XIAP-Bir3 (P98170 241-356 limits assumed): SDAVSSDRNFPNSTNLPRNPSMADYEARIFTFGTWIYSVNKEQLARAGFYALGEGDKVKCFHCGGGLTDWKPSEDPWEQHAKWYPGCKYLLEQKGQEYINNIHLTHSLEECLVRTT
Chain of cIAP-1-Bir3 (Q13490 253-363 limits assumed): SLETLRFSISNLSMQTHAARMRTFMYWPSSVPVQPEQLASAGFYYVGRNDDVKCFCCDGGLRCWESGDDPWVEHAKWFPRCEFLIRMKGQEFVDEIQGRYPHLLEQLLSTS
T2 sequence (Q13490 whole entry): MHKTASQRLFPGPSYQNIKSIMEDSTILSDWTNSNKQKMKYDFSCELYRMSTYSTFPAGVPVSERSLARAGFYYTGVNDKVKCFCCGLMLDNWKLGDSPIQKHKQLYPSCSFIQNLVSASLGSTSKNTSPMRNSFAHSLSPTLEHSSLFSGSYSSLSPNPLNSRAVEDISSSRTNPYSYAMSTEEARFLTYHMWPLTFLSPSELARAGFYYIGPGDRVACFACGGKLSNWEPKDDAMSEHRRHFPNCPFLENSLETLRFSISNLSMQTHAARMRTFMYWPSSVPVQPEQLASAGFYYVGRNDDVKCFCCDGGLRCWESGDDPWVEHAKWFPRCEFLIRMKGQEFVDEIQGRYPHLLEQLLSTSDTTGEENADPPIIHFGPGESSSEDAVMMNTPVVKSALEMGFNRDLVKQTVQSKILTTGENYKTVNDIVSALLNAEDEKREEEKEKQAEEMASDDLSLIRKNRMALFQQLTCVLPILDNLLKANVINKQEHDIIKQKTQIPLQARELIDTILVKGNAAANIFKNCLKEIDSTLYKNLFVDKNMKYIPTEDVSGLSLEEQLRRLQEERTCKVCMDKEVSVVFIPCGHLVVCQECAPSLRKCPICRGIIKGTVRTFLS
T1 sequence (P98170 whole entry): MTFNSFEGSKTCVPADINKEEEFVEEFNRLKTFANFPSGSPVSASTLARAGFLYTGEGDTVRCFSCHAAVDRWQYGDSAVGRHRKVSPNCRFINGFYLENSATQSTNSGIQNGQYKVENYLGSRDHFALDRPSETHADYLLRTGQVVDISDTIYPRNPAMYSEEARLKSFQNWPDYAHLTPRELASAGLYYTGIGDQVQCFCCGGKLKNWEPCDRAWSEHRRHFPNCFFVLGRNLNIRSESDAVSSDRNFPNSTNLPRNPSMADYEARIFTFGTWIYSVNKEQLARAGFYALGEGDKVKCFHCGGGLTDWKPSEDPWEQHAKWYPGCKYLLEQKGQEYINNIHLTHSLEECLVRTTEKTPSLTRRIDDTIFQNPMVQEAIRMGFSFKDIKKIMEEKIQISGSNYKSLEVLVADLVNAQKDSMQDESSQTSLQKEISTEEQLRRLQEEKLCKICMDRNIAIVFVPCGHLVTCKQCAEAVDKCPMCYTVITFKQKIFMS

Row | Molecule | CC50 [1] [µM] | Kd [2, 10] [nM] | Kd [3, 11] [nM] | Kd [4, 12] [nM] | further results
1 | CCC(C)[C@H](NC(=O)[C@H](C)NC)C(=O)N1CCC[C@H]1Cc1c2n(c3ccc(F)cc13)CCn1c-2c(C[C@@H]2CCCN2C(=O)[C@@H](NC(=O)[C@H](C)NC)C(C)CC)c2cc(F)ccc21 (some centres unmarked) [A] | 0.0002 | 10 | 0.5 | 14 | –
2 | CNC(C)C(=O)NC(C(=O)N1CC(OC(C)=O)CC1Cc1c[nH]c2ccccc12)C(C)C (centres unmarked) [Compound H] | 0.007 | 120 | – | – | synergistic toxicity with SN-38, synergistic volume [5]: comparable; EC50 [1]: 7 nM; Kd [2, 13]: 117 nM; Kd [3, 14]: 1 nM; binding to cIAP-1 and cIAP-2 relative to XIAP (fold more tightly) [3]: 117 fold; Kd [4, 15]: 46 nM
3 | CNC(C)C(=O)NC(C(=O)N1CCCC1Cc1c[nH]c2ccc(C)cc12)C(C)O (centres unmarked) [Compound K] | 0.002 | 310 | 8 | 6 | –
4 | CC(C)C(NC(=O)CN)C(=O)N1CC(Oc2ccccc2)CC1Cc1coc2ccccc12 (centres unmarked) [D] | 0.043 | 160 | 17 | 33 | –
5 | CNC(C)C(=O)NC(C(=O)N1CCCC1Cc1c(-c2ccc(C(=O)OC)cc2)n(CCOCCOCCOC)c2cc(F)ccc12)C(C)(C)C (centres unmarked) [E] | 0.046 | 90 | 16 | 8 | –
6 | CNC(C)C(=O)NC(C(=O)N1CCCC1Cc1c(-c2ccc(F)cc2)n(CCOCCOCCOC)c2cc(F)ccc12)C(C)(C)C (centres unmarked) [F] | 0.079 | 820 | 26 | 120 | –
7 | CNC(C)C(=O)NC(C(=O)N1CCCC1Cc1c(-c2ccc(N3CCOCC3)cc2)n(CCOCCOCCOC)c2cc(F)ccc12)C(C)(C)C (centres unmarked) [G] | 0.28 | 400 | 130 | 180 | –
8 | CNC(C)C(=O)NC(C(=O)N1CC(OC(C)=O)CC1Cc1c[nH]c2ccccc12)C(C)(C)C (centres unmarked) [I] | 0.004 | 200 | 72 | 50 | –
9 | CNC(C)C(=O)NC(C(=O)N1CC(OC(C)=O)CC1Cc1c[nH]c2ccccc12)C(C)O (centres unmarked) [J] | 0.008 | 460 | 53 | 26 | –
10 | CNC(C)C(=O)NC(C(=O)N1CC(O)CC1Cc1c(-c2ccc(-c3[nH]c4ccccc4c3CC3CC(O)CN3C(=O)C(NC(=O)C(C)NC)C(C)(C)C)cc2)[nH]c2ccccc12)C(C)(C)C (centres unmarked) [N] | – | – | – | – | synergistic toxicity with SN-38, synergistic volume [5]: comparable; EC50 [1]: 7 nM; Kd [2, 13]: 1 nM; Kd [3, 14]: 1 nM; binding to cIAP-1 and cIAP-2 relative to XIAP (fold more tightly) [3]: comparable affinity; Kd [4, 15]: 6 nM
11 | CN[C@@H](C)C(=O)N[C@H](C(=O)N1CCC[C@H]1Cc1c(-c2ccc(-c3c(C[C@@H]4CCCN4C(=O)[C@@H](NC(=O)[C@H](C)NC)C(C)(C)C)c4ccc(F)cc4n3CCO)cc2)n(CCO)c2cc(F)ccc12)C(C)(C)C [Q] | – | – | – | – | XIAP protein level by western blot [6]: complete disappearance; cIAP-1 protein level by western blot [7]: complete disappearance
12 | TRAIL: tumor necrosis factor-related apoptosis inducing ligand, member of the TNF superfamily that induces apoptosis through death receptors (protein, UniProt P50591 1-281, looked up) Tumor necrosis factor ligand …: MAMMEVQGGPSLGQTCVLIVIFTVLLQSLCVAVTYVYFTNELKQMQDKYSKSGIACFLKEDDSYWDPNDEESMNSPCWQVKWQLRQLVRKMILRTSEETISTVQEKQQNISPLVRERGPQRVAAHITGTRGRSNTLSSPNSKNEKALGRKINSWESSRSGHSFLSNLHLRNGELVIHEKGFYYIYSQTYFRFQEEIKENTKNDKQMVQYIYKYTSYPDPILLMKSARNSCWSKDAEYGLYSIYQGGIFELKENDRIFVSVTNEHLIDMDHEASFFGAFLVG | – | – | – | – | TRAIL sensitivity in MTT assay [8]: sensitive to TRAIL; TRAIL sensitivity in MTT assay [9]: resistant to TRAIL
